Test results from patent US20260242352A1, “INHIBITION OF SHIP1 AS A THERAPEUTIC STRATEGY FOR THE TREATMENT OF ALZHEIMER'S DISEASE” (The Trustees of Indiana University, priority 2022, published 2026).

Legend:
BV2 cells = test: pHrodo-myelin phagocytosis/cell health assay, BV2 cells; assay type: cell-based; conditions: Mus musculus, BV-2, compound 48 hrs, 60 μM to 3 nM, (n) in cell
Procedure: pHrodo-myelin phagocytosis/cell health assay with microglial cells. This 384-well plate high content imaging assay was developed to quantify phagocytosis and cell health simultaneously using either BV2 or HMC3 immortalized microglial cell lines or primary microglia isolated from mouse brain. Cells were cultured in DMEM GlutaMax media (ThermoFisher) containing 10% FBS and Pen-Strep in 37° C. 5% CO2 incubator.
Day 1: Cells were plated (Corning Falcon 384 well Optilux Black and clear bottom plates for imaging) with BV2 at 400 cells/45 μl/well, HMC3 at 600 cells/45 μl/well, or primary at 2000 cell/45 μl/well.
Day 2: Cells were treated with 10× serially diluted compounds in a dose range of 60 μM to 3 nM for 48 hrs at 37° C.
Day 3: Cells were seeded with pHrodo-myelin (for total 20 hrs) 24 hrs after starting compound treatment. The pHrodo-myelin stocks were at 1 mg/ml (protein equivalent) stored in −20° C. or −80° C. freezer. Stocks were thawed and diluted with culture media into 10× seeding solution (50 μg/ml) and added 5 μl/well to 384 well cell plate.
Day 4: Cell staining and imaging. Nuclear staining solution was prepared by adding 1 μl of 10 mg/mL Hoechst-33342 to every 1 ml culture media that will be added to cell plate at 20 μl/well. The final concentration of Hoechst-33342 to cells was about 2.5 μg/ml. Cell plates were incubated for >30 min at 37° C. before imaging. Cell plates were scanned with an ArrayScan automatic high content imaging system using a 10× objective lens, 4 fields/well collected. Three measurements were obtained 1) mean total phagocytosis spot intensity per cell, 2) total cell counts per well, and 3) mean average nuclear intensity per cell for cell health.
This 384-well plate high content imaging assay was developed to quantify phagocytosis and cell health simultaneously using either BV2 or HMC3 immortalized microglial cell lines or primary microglia isolated from mouse brain. Cells were cultured in DMEM GlutaMax media (ThermoFisher) containing 10% FBS and Pen-Strep in 37° C. 5% CO2 incubator. Day 1: Cells were plated (Corning Falcon 384 well Optilux Black and clear bottom plates for imaging) with BV2 at 400 cells/45 μl/well, HMC3 at 600 cells/45 μl/well, or primary at 2000 cell/45 μl/well. Day 2: Cells were treated with 10× serially diluted compounds in a dose range of 60 μM to 3 nM for 48 hrs at 37° C. Day 3: Cells were seeded with pHrodo-myelin (for total 20 hrs) 24 hrs after starting compound treatment. The pHrodo-myelin stocks were at 1 mg/ml (protein equivalent) stored in −20° C. or −80° C. freezer. Stocks were thawed and diluted with culture media into 10× seeding solution (50 μg/ml) and added 5 μl/well to 384 well cell plate. Day 4: Cell staining and imaging. Nuclear staining solution was prepared by adding 1 μl of 10 mg/mL Hoechst-33342 to every 1 ml culture media that will be added to cell plate at 20 μl/well. The final concentration of Hoechst-33342 to cells was about 2.5 μg/ml. Cell plates were incubated for >30 min at 37° C. before imaging. Cell plates were scanned with an ArrayScan automatic high content imaging system using a 10× objective lens, 4 fields/well collected. Three measurements were obtained 1) mean total phagocytosis spot intensity per cell, 2) total cell counts per well, and 3) mean average nuclear intensity per cell for cell health.

primary mouse microglia = test: Phagocytosis in primary mouse microglia; assay type: cell-based; conditions: pHrodo-myelin
Procedure: Activity of Compound 9 in primary mouse microglia. Cortical tissue from C57BL/6J neonatal mice (P0-P3) was homogenized in Dulbecco's Modified Eagle Medium (DMEM), filtered through 250 and 100 μm mesh, and cultured in Advanced DMEM/F12 supplemented with 10% fetal bovine serum, 1× GlutaMAX and 1× Penicillin/Streptomycin. At 21 days in vitro (DIV), the cultures were subjected to mild trypsinization using 0.083% Trypsin-EDTA in DMEM for 30 mins to detach an intact layer of astrocytes. The microglia attached to the bottom were used as described in pHrodo-myelin phagocytosis assay to measure phagocytosis and cell health. The activity of Compound 10 in primary mouse microglia was obtained in a similar manner to Compound 9. Cortical tissue from C57BL/6J neonatal mice (P0-P3) was homogenized in Dulbecco's Modified Eagle Medium (DMEM), filtered through 250 and 100 μm mesh, and cultured in Advanced DMEM/F12 supplemented with 10% fetal bovine serum, 1× GlutaMAX and 1× Penicillin/Streptomycin. At 21 days in vitro (DIV), the cultures were subjected to mild trypsinization using 0.083% Trypsin-EDTA in DMEM for 30 mins to detach an intact layer of astrocytes. The microglia attached to the bottom were used as described in Example 13 to measure myelin phagocytosis and cell health. The results are depicted in FIG. 3. Primary Mouse Microglia of compound 10 was obtained in a similar manner to compound 9. The results are depicted in FIG. 3.

[1] = Pharmacokinetics in C57BL/6J mice; assay type: in vivo, mouse; conditions: dosed orally at 100 mg/kg
Procedure: Pharmacokinetics of Compound 9. Compound 9 was formulated at 5 mg/ml in HPMC (1%)/Tween 80 (0.25%)/purified water. Male C57BL/6J mice aged 8-12 weeks from The Jackson Laboratory were dosed (100 mg/kg, 20 ml/kg) via oral gavage. Plasma exposures at 0.5, 1, 2, 4, 6, 8, 12 hr and terminal at 24 hr were obtained. Brain exposures were obtained at terminal 4 and 24 hrs. The pharmacokinetics of Compound 10 was obtained in a similar manner to Compound 9. Compound was formulated in hydroxyethylcellulose (1%)/Tween 80 (0.25%)/antifoam (0.050%)/water (purified) at a concentration of 5 mg/ml. 100 mg/kg, 20 ml/kg was dosed via oral gavage. Plasma exposures at 0.25, 0.5, 1, 2, 8 hr and terminal at 24 hrs were obtained. Brain exposures were obtained at terminal 4 and 24 hrs. The results are depicted in FIG. 4. Pharmacokinetics of compound 10 in C57BL/6J Mice were obtained in a similar manner as compound 9. The results are depicted in FIG. 4.

| SMILES | EC50 (BV2 cells) | other results |
| --- | --- | --- |
| CC(C)(C)OC(=O)N1CCC(n2cc(-c3cncc(OCc4ccccc4F)c3)cn2)CC1 [Compound 2, tert-butyl 4-(4-(5-((2-fluorobenzyl)oxy)pyridin-3-yl)-1H-pyrazol-1-yl)piperidine-1-carboxylate] | 1560 nM | – |
| C[C@H](Oc1cncc(-c2cnn(C3CCNCC3)c2)c1)c1ccccc1Cl [Compound 21, (S)-3-(1-(2-chlorophenyl)ethoxy)-5-(1-(piperidin-4-yl)-1H-pyrazol-4-yl)pyridine] | 395 nM | – |
| CC(C)(C)CCN1CCC(n2cc(-c3cncc(OCc4ccccc4Cl)c3)cn2)CC1 [Compound 15, 3-((2-chlorobenzyl)oxy)-5-(1-(1-(3,3-dimethylbutyl)piperidin-4-yl)-1H-pyrazol-4-yl)pyridine] | 2260 nM | – |
| CC(C)(C)OC(=O)N1CCC(n2cc(-c3cncc(OCc4ccccc4Cl)c3)cn2)CC1 [Compound 1, tert-butyl 4-(4-{5-[(2-chlorophenyl)methoxy]pyridin-3-yl}-1H-pyrazol-1-yl)piperidine-1-carboxylate] | 2330 nM | – |
| CC(C)(C)OC(=O)N1CCC(n2cc(-c3cncc(OCc4ccc(Br)cc4)c3)cn2)CC1 [Compound 7, tert-butyl 4-(4-(5-((4-bromobenzyl)oxy)pyridin-3-yl)-1H-pyrazol-1-yl)piperidine-1-carboxylate] | 756 nM | – |
| CC(C)(C)CC(=O)N1CCC(n2cc(-c3cncc(OCc4ccccc4Cl)c3)cn2)CC1 [Compound 16, 1-(4-(4-(5-((2-chlorobenzyl)oxy)pyridin-3-yl)-1H-pyrazol-1-yl)piperidin-1-yl)-3,3-dimethylbutan-1-one] | 1170 nM | – |
| Cl.Clc1ccccc1COc1cncc(-c2cnn(C3CCNCC3)c2)c1 [Compound 9, 3-((2-chlorobenzyl)oxy)-5-(1-(piperidin-4-yl)-1H-pyrazol-4-yl)pyridine hydrochloride] | 741 nM | EC50 (primary mouse microglia): 1300 nM; increased phagocytosis (primary mouse microglia): 1.8 fold; exposure in brain [1]: 0.5 µM; exposure in plasma [1]: 5 µM |
| C[C@@H](Oc1cncc(-c2cnn(C3CCNCC3)c2)c1)c1ccc(Cl)cc1 [Compound 23, (R)-3-(1-(4-chlorophenyl)ethoxy)-5-(1-(piperidin-4-yl)-1H-pyrazol-4-yl)pyridine] | 2600 nM | – |
| Cc1ccccc1COc1cncc(-c2cnn(C3CCN(C(=O)OC(C)(C)C)CC3)c2)c1 [Compound 3, tert-butyl 4-(4-(5-((2-methylbenzyl)oxy)pyridin-3-yl)-1H-pyrazol-1-yl)piperidine-1-carboxylate] | 1030 nM | – |
| Cl.Clc1ccc(COc2cncc(-c3cnn(C4CCNCC4)c3)c2)c(Cl)c1 [Compound 10, 3-((2,4-dichlorobenzyl)oxy)-5-(1-(piperidin-4-yl)-1H-pyrazol-4-yl)pyridine hydrochloride] | 1750 nM | EC50 (primary mouse microglia): 540 nM; increased phagocytosis (primary mouse microglia): 1.5 fold; exposure in brain [1]: 6 µM; exposure in plasma [1]: 2 µM |
| CC(C)(C)OC(=O)N1CCC(n2cc(-c3cncc(OCc4ccccc4)c3)cn2)CC1 [Compound 4, tert-butyl 4-(4-(5-(benzyloxy)pyridin-3-yl)-1H-pyrazol-1-yl)piperidine-1-carboxylate] | 3230 nM | – |
